Test results published in patent US9790201B2, “Piperidine and azepine derivatives as prokineticin receptor modulators” (TAKEDA PHARMACEUTICAL COMPANY LIMITED, priority 2013, dated 2017).

Target: human PKR1 receptors (Homo sapiens (Human), UniProt Q8TCW9)
Experiment: PKR1 antagonist assay: block of PK1-mediated intracellular calcium release (FLIPR Tetra)
Assay type: cell-based
Settings: RBL2H3 cells expressing human PKR1; stimulation with PK1 at EC80; calcium fluorescence
Description: Prokineticin receptor 1 (PKR1) antagonists may be functionally assessed by measurement of change in intracellular calcium levels induced by Gq mediated increase in inositol triphosphate (IP3) levels. The ability of a compound to block the intracellular release of calcium mediated by PK1 in RBL2H3 cells expressing human PKR1 receptors is determined as a measure of the compound's antagonist activity in vitro.
Approximately 10,000 cells per assay well are seeded in normal culture medium in a 384 well plate (Corning). Twenty-four hours after seeding, the cells are loaded with a calcium sensitive fluorescent dye by replacing the culture medium with assay buffer (1× Hanks buffered saline, 25 mM HEPES, 0.1% w/v fatty acid free BSA (bovine serum albumin), pH 7.4) containing 1 mM probenecid and 1× Calcium 5 Reagent (Molecular Devices). Cells are incubated at 37° C. for 1 hour to allow for dye uptake.
To test for antagonist activity, test compounds at a final concentration range between 0.32 nM-10 μM (diluted in assay buffer) are added to the assay wells and allowed to incubate for 10 minutes prior to stimulation with PK1. After incubation with test compounds the assay plate is placed in a FLIPR Tetra (Molecular Devices) and PK1 (diluted in assay buffer) is added at the determined EC80 concentration (final). Ligand-dependent changes in intracellular calcium levels are determined by measuring changes in fluorescence of the dye at […] following excitation at 485 nm.

Chain of human PKR1 receptors (Q8TCW9 whole entry): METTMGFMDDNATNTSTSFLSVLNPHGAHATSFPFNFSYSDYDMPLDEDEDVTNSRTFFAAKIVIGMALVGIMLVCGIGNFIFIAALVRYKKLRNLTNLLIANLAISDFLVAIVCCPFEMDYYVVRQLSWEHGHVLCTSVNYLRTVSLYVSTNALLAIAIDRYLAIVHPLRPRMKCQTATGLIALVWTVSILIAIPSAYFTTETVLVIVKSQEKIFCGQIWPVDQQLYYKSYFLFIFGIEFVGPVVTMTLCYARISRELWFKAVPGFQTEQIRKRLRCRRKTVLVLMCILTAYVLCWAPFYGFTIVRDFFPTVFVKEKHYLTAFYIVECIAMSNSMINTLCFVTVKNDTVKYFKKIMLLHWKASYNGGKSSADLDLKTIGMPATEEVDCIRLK

Row | IC50 | Structure (SMILES)
1 | 990 nM | Cc1ccc(C2CCCN(C(=O)c3ccnc(N(C)C)c3)C2)cc1 (single isomer, unassigned) [Example 50, N,N-Dimethyl-4-{[3-(4-methylphenyl)piperidin-1-yl]carbonyl}pyridin-2-amine]
2 | 310 nM | Cc1ccc(C2CCCN(C(=O)c3ccnc(N(C)C)c3)C2)cc1 (single isomer, unassigned) [Example 51, N,N-Dimethyl-4-{[3-(4-methylphenyl)piperidin-1-yl]carbonyl}pyridin-2-amine]
3 | 1180 nM | CNc1cc(C(=O)N2CCC[C@@H](c3ccc(Cl)cc3C)C2)cnn1 (single isomer, unassigned) [Example 73]
4 | > 10000 nM | Cn1cc(C(=O)N2CCCC(c3ccc(Cl)cc3C(F)(F)F)C2)c(N)n1 (single isomer, unassigned) [Example 118, 4-({3-[4-Chloro-2-(trifluoromethyl)phenyl]piperidin-1-yl}carbonyl)-1-methyl-1H-pyrazol-3-amine]
5 | 330 nM | Cn1cc(C(=O)N2CCCC(c3ccc(Cl)cc3C(F)(F)F)C2)c(N)n1 (single isomer, unassigned) [Example 119, 4-({3-[4-Chloro-2-(trifluoromethyl)phenyl]piperidin-1-yl}carbonyl)-1-methyl-1H-pyrazol-3-amine]
6 | 1820 nM | CN(C)c1cc(C(=O)N2CCCC(c3ccccc3F)C2)ccn1 (centres unmarked) [Example 1, 4-{[3-(2-Fluorophenyl)piperidin-1-yl]carbonyl}-N,N-dimethylpyridin-2-amine]
7 | 190 nM | CN(C)c1cc(C(=O)N2CCCC(c3ccc(Cl)cc3Cl)C2)ccn1 (centres unmarked) [Example 2, 4-{[3-(2,4-Dichlorophenyl)piperidin-1-yl]carbonyl}-N,N-dimethylpyridin-2-amine]
8 | 1740 nM | O=C(c1ccnc(C2CC2)c1)N1CCCC(c2ccc(Cl)cc2)C1 (centres unmarked) [Example 3, 4-{[3-(4-Chlorophenyl)piperidin-1-yl]carbonyl}-2-cyclopropylpyridine]
9 | 70 nM | CCc1cc(C(=O)N2CCCC(c3ccc(Cl)cc3C)C2)ccn1 (centres unmarked) [Example 4, 4-{[3-(4-Chloro-2-methylphenyl)piperidin-1-yl]carbonyl}-2-ethylpyridine]
10 | 450 nM | Cc1cc(C(=O)N2CCCC(c3ccc(Cl)cc3C)C2)ccn1 (centres unmarked) [Example 5, 4-{[3-(4-Chloro-2-methylphenyl)piperidin-1-yl]carbonyl}-2-methylpyridine]
11 | 280 nM | CCc1cc(C(=O)N2CCCC(c3ccc(Cl)cc3C(F)(F)F)C2)ccn1 (centres unmarked) [Example 6, 4-({3-[4-Chloro-2-(trifluoromethyl)phenyl]piperidin-1-yl}carbonyl)-2-ethylpyridine]
12 | 100 nM | CN(C)c1cc(C(=O)N2CCCC(c3ccc(Cl)cc3C(F)(F)F)C2)ccn1 (centres unmarked) [Example 7, 4-({3-[4-Chloro-2-(trifluoromethyl)phenyl]piperidin-1-yl}carbonyl)-N,N-dimethylpyridin-2-amine]
13 | 3270 nM | CC(C)Nc1cc(C(=O)N2CCCC(c3ccc(Cl)cc3)C2)ccn1 (centres unmarked) [Example 8, 4-{[3-(4-Chlorophenyl)piperidin-1-yl]carbonyl}-N-(propan-2-yl)pyridin-2-amine]
14 | 1370 nM | COc1cc(C(=O)N2CCCC(c3ccc(Cl)cc3C(F)(F)F)C2)ccn1 (centres unmarked) [Example 9, 4-({3-[4-Chloro-2-(trifluoromethyl)phenyl]piperidin-1-yl}carbonyl)-2-methoxypyridine]
15 | 1170 nM | Cc1cc(C(=O)N2CCCC(c3ccc(Cl)cc3C(F)(F)F)C2)ccn1 (centres unmarked) [Example 10, 4-({3-[4-Chloro-2-(trifluoromethyl)phenyl]piperidin-1-yl}carbonyl)-2-methylpyridine]
16 | 290 nM | CNc1cc(C(=O)N2CCCC(c3ccc(C)cc3)C2)ccn1 (centres unmarked) [Example 11, N-Methyl-4-{[3-(4-methylphenyl)piperidin-1-yl]carbonyl}pyridin-2-amine]
17 | 2800 nM | Cc1ccc(C2CCCN(C(=O)c3ccnc(C)c3)C2)cc1 (centres unmarked) [Example 12, 2-Methyl-4-{[3-(4-methylphenyl)piperidin-1-yl]carbonyl}pyridine]
18 | 1920 nM | Cc1cccc(C2CCCN(C(=O)c3ccnc(N(C)C)c3)C2)c1 (centres unmarked) [Example 13, N,N-Dimethyl-4-{[3-(3-methylphenyl)piperidin-1-yl]carbonyl}pyridin-2-amine]
19 | 190 nM | Cc1ccccc1C1CCCN(C(=O)c2ccnc(N(C)C)c2)C1 (centres unmarked) [Example 14, N,N-Dimethyl-4-{[3-(2-methylphenyl)piperidin-1-yl]carbonyl}pyridin-2-amine]
20 | 1140 nM | CN(C)c1cc(C(=O)N2CCCC(c3ccccc3)C2)ccn1 (centres unmarked) [Example 15, N,N-Dimethyl-4-[(3-phenylpiperidin-1-yl)carbonyl]pyridin-2-amine]
21 | 270 nM | CN(C)c1cc(C(=O)N2CCCC(c3ccc(Cl)cc3)C2)ccn1 (centres unmarked) [Example 16, 4-{[3-(4-Chlorophenyl)piperidin-1-yl]carbonyl}-N,N-dimethylpyridin-2-amine]

Row | IC50 | Structure (SMILES)
22 | 840 nM | CN(C)c1cc(C(=O)N2CCC[C@@H](c3ccc(Cl)cc3)C2)ccn1 [Example 17, 4-{[(3S)-3-(4-Chlorophenyl)piperidin-1-yl]carbonyl}-N,N-dimethylpyridin-2-amine]
23 | 180 nM | CN(C)c1cc(C(=O)N2CCC[C@H](c3ccc(Cl)cc3)C2)ccn1 [Example 18, 4-{[(3R)-3-(4-Chlorophenyl)piperidin-1-yl]carbonyl}-N,N-dimethylpyridin-2-amine]
24 | 1220 nM | CN(C)c1cc(C(=O)N2CCCC(c3ccc(F)cc3)C2)ccn1 (centres unmarked) [Example 19, 4-{[3-(4-Fluorophenyl)piperidin-1-yl]carbonyl}-N,N-dimethylpyridin-2-amine]
25 | 1210 nM | CCc1cc(C(=O)N2CCCC(c3ccc(C)cc3)C2)ccn1 (centres unmarked) [Example 20, 2-Ethyl-4-{[3-(4-methylphenyl)piperidin-1-yl]carbonyl}pyridine]
26 | 1200 nM | Cc1ccc(C2CCCN(C(=O)c3ccnc(N4CCC4)c3)C2)cc1 (centres unmarked) [Example 21, 2-(Azetidin-1-yl)-4-{[3-(4-methylphenyl)piperidin-1-yl]carbonyl}pyridine]
27 | 1040 nM | O=C(c1ccnc(N2CCC2)c1)N1CCCC(c2ccc(Cl)cc2)C1 (centres unmarked) [Example 22, 2-(Azetidin-1-yl)-4-{[3-(4-chlorophenyl)piperidin-1-yl]carbonyl}pyridine]
28 | 960 nM | Cc1ccccc1C1CCCN(C(=O)c2ccnc(N3CCC3)c2)C1 (centres unmarked) [Example 23, 2-(Azetidin-1-yl)-4-{[3-(2-methylphenyl)piperidin-1-yl]carbonyl}pyridine]
29 | 30 nM | Cc1cc(Cl)ccc1C1CCCN(C(=O)c2ccnc(N(C)C)c2)C1 (centres unmarked) [Example 24, 4-{[3-(4-Chloro-2-methylphenyl)piperidin-1-yl]carbonyl}-N,N-dimethylpyridin-2-amine]
30 | 530 nM | CN(C)c1cc(C(=O)N2CCCC(c3ccc(Cl)cc3F)C2)ccn1 (centres unmarked) [Example 25, 4-{[3-(4-Chloro-2-fluorophenyl)piperidin-1-yl]carbonyl}-N,N-dimethylpyridin-2-amine]
31 | 470 nM | CN(C)c1cc(C(=O)N2CCCC(c3ccc(F)cc3Cl)C2)ccn1 (centres unmarked) [Example 26, 4-{[3-(2-Chloro-4-fluorophenyl)piperidin-1-yl]carbonyl}-N,N-dimethylpyridin-2-amine]
32 | 130 nM | CNc1cc(C(=O)N2CCCC(c3ccc(Cl)cc3)C2)ccn1 (centres unmarked) [Example 27, 4-{[3-(4-Chlorophenyl)piperidin-1-yl]carbonyl}-N-methylpyridin-2-amine]
33 | 1330 nM | Cc1cc(C(=O)N2CCCC(c3ccc(Cl)cc3)C2)cc(C)n1 (centres unmarked) [Example 28, 4-{[3-(4-Chlorophenyl)piperidin-1-yl]carbonyl}-2,6-dimethylpyridine]
34 | 3290 nM | O=C(c1ccnc(Cl)c1)N1CCCC(c2ccc(Cl)cc2)C1 (centres unmarked) [Example 29, 2-Chloro-4-{[3-(4-chlorophenyl)piperidin-1-yl]carbonyl}pyridine]
35 | 830 nM | CC(C)c1cc(C(=O)N2CCCC(c3ccc(Cl)cc3)C2)ccn1 (centres unmarked) [Example 30, 4-{[3-(4-Chlorophenyl)piperidin-1-yl]carbonyl}-2-(propan-2-yl)pyridine]
36 | 30 nM | CNc1cc(C(=O)N2CCCC(c3ccc(Cl)cc3C)C2)ccn1 (centres unmarked) [Example 31, 4-{[3-(4-Chloro-2-methylphenyl)piperidin-1-yl]carbonyl}-N-methylpyridin-2-amine]
37 | 490 nM | COc1cc(C(=O)N2CCCC(c3ccc(Cl)cc3C)C2)ccn1 (centres unmarked) [Example 32, 4-{[3-(4-Chloro-2-methylphenyl)piperidin-1-yl]carbonyl}-2-methoxypyridine]
38 | 90 nM | Cc1cc(Cl)ccc1C1CCCN(C(=O)c2ccnc(N3CCC3)c2)C1 (centres unmarked) [Example 33, 2-(Azetidin-1-yl)-4-{[3-(4-chloro-2-methylphenyl)piperidin-1-yl]carbonyl}pyridine]
39 | 5270 nM | COc1cc(C(=O)N2CCCC(c3ccc(C)cc3)C2)ccn1 (centres unmarked) [Example 34, 2-Methoxy-4-{[3-(4-methylphenyl)piperidin-1-yl]carbonyl}pyridine]
40 | 8820 nM | Cc1ccc(C2CCCN(C(=O)c3ccnc(N4CCCC4)c3)C2)cc1 (centres unmarked) [Example 35, 4-{[3-(4-Methylphenyl)piperidin-1-yl]carbonyl}-2-(pyrrolidin-1-yl)pyridine]
41 | 5510 nM | COc1cccc([C@@H]2CCCN(C(=O)c3ccnc(N(C)C)c3)C2)c1 [Example 36, 4-{[(3S)-3-(3-Methoxyphenyl)piperidin-1-yl]carbonyl}-N,N-dimethylpyridin-2-amine]
